Test results published in patent publication US9556179B2 (BRISTOL-MYERS SQUIBB COMPANY, priority 2012, dated 2017).
pIC50: −log10 of the molar value.

Tests used:
[1] = molecular target: CK1δ (Homo sapiens (Human), UniProt P48730); assay: CK1δ kinase assay (Caliper LABCHIP electrophoretic separation of fluoresceinated peptide substrate and product); type: biochemical; settings: 200 pM enzyme, 50 μM ATP, 22 hours at room temperature
Summary of the method: (§1)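 Each reaction was incubated 22 hours at room temperature and terminated with EDTA. Read-out was microfluidic electrophoretic separation of fluoresceinated substrate and phospho-product.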

[2] = molecular target: CK1ε (Homo sapiens (Human), UniProt P49674); assay: CK1ε kinase assay (Caliper LABCHIP electrophoretic separation of fluoresceinated peptide substrate and product); type: biochemical; settings: 200 pM enzyme, 50 μM ATP, 22 hours at room temperature
Summary of the method: as §1

Sequence of CK1δ (P48730 whole entry): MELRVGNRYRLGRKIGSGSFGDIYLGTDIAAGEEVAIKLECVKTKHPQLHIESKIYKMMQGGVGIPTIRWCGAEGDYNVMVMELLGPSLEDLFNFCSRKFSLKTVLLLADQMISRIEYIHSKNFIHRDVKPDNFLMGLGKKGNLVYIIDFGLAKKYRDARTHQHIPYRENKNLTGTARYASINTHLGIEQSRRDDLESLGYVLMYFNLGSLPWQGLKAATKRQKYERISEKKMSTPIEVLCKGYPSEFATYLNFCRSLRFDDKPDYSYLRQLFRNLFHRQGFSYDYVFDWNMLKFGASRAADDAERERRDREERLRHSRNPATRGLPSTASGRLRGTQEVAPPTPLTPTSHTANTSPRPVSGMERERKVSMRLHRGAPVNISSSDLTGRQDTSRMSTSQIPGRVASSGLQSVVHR
Sequence of CK1ε (P49674 whole entry): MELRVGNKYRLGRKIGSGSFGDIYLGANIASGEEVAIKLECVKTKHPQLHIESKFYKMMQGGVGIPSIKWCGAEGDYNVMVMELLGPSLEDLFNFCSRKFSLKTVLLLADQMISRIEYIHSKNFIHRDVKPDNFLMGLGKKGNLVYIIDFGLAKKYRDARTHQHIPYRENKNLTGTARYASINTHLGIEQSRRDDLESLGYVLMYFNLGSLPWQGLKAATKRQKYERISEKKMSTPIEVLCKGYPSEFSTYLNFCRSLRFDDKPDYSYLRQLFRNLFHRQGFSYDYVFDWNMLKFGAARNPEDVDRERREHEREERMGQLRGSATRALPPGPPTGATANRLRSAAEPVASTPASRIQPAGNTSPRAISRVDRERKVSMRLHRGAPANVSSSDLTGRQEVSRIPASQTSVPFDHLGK

Compound	pIC50 [1]	pIC50 [2]
O=C(Nc1cn2nc(-c3c(-c4ccc(F)cc4)nc4ccccn34)ccc2n1)c1ccnc(O)c1 [Compound 195, N-(6-(2-(4-fluorophenyl)imidazo[1,2-a]pyridin-3-yl)imidazo[1,2-b]pyridazin-2-yl)-2-hydroxyisonicotinamide]	9.22	8.31
O=C(Nc1cn2nc(-c3c(-c4ccc(F)cc4)nc4ccccn34)ccc2n1)c1ccnc(F)c1 [Compound 196, 2-fluoro-N-(6-(2-(4-fluorophenyl)imidazo[1,2-a]pyridin-3-yl)imidazo[1,2-b]pyridazin-2-yl)isonicotinamide]	8.44	8.23
O=C(Nc1cn2nc(-c3c(-c4ccc(F)cc4)nc4ccccn34)ccc2n1)c1cc(Cl)ncc1C(F)(F)F [Compound 199, 2-chloro-N-(6-(2-(4-fluorophenyl)imidazo[1,2-a]pyridin-3-yl)imidazo[1,2-b]pyridazin-2-yl)-5-(trifluoromethyl) isonicotinamide]	8.49	7.79
O=C(Nc1cn2nc(-c3c(-c4ccc(F)cc4)nc4ccccn34)ccc2n1)c1ccncc1F [Compound 200, 3-fluoro-N-(6-(2-(4-fluorophenyl)imidazo[1,2-a]pyridin-3-yl)imidazo[1,2-b]pyridazin-2-yl) isonicotinamide]	8.75	8.34
O=C(Nc1cn2nc(-c3c(-c4ccc(F)cc4)nc4ccccn34)ccc2n1)c1cncc(Cl)c1 [Compound 201, 5-chloro-N-(6-(2-(4-fluorophenyl)imidazo[1,2-a]pyridin-3-yl)imidazo[1,2-b]pyridazin-2-yl) nicotinamide]	8.92	8.52
CC(C)(C)c1cc(C(=O)Nc2cn3nc(-c4c(-c5ccc(F)cc5)nc5ccccn45)ccc3n2)ncn1 [Compound 202, 6-(tert-butyl)-N-(6-(2-(4-fluorophenyl)imidazo[1,2-a]pyridin-3-yl)imidazo[1,2-b]pyridazin-2-yl)pyrimidine-4-carboxamide]	8.01	7.55
O=C(Nc1cn2nc(-c3c(-c4ccc(F)cc4)nc4ccccn34)ccc2n1)c1cccc(-c2cccnc2)c1 [Compound 204, N-(6-(2-(4-fluorophenyl)imidazo[1,2-a]pyridin-3-yl)imidazo[1,2-b]pyridazin-2-yl)-3-(pyridin-3-yl)benzamide]	8.68	8.74
O=C(Nc1cn2nc(-c3c(-c4ccc(F)cc4)nc4ccccn34)ccc2n1)c1cccc(-c2cncnc2)c1 [Compound 205, N-(6-(2-(4-fluorophenyl)imidazo[1,2-a]pyridin-3-yl)imidazo[1,2-b]pyridazin-2-yl)-3-(pyrimidin-5-yl)benzamide]	8.69	8.36

Further compounds by rising pIC50 [1], results first:

pIC50 [1]	pIC50 [2]	Compound
8.41	7.46	O=C(Nc1cn2nc(-c3c(-c4ccc(F)cc4)nc4ccccn34)ccc2n1)c1ccnc(C(F)(F)F)c1 [Compound 198, N-(6-(2-(4-fluorophenyl)imidazo[1,2-a]pyridin-3-yl)imidazo[1,2-b]pyridazin-2-yl)-2-(trifluoromethyl) isonicotinamide]
8.52	8.05	CC(C)(C)c1cc(C(=O)Nc2cn3nc(-c4c(-c5ccc(F)cc5)nc5ccccn45)ccc3n2)ccn1 [Compound 197, 2-(tert-butyl)-N-(6-(2-(4-fluorophenyl)imidazo[1,2-a]pyridin-3-yl)imidazo[1,2-b]pyridazin-2-yl)isonicotinamide]
9.15	7.86	Nc1cc(C(=O)Nc2cn3nc(-c4c(-c5ccc(F)cc5)nc5ccccn45)ccc3n2)ccn1 [Compound 194, 2-amino-N-(6-(2-(4-fluorophenyl)imidazo[1,2-a]pyridin-3-yl)imidazo[1,2-b]pyridazin-2-yl) isonicotinamide]
9.35	8.43	O=C(Nc1cn2nc(-c3c(-c4ccc(F)cc4)nc4ccccn34)ccc2n1)c1ccnc(N2CCOCC2)c1 [Compound 203, N-(6-(2-(4-fluorophenyl)imidazo[1,2-a]pyridin-3-yl)imidazo[1,2-b]pyridazin-2-yl)-2-morpholinoisonicotinamide]
